The results in this text go back to US20090215752A1, “Compounds, preparation and therapeutic use thereof” (priority 2005, published 2009).

Experiment [1] concerns the target T1, 5-HT transporter (Homo sapiens, UniProt P31645).
T1 construct: expressed in transfected cells; host or cells: HEK-293
In words: Serotonergic transporter binding ([3H]imipramine). Particulars: [3H]imipramine 2 nM, HEK-293 recombinant, read-out: percentage inhibition at 10 μM of control specific binding to the serotonergic transporter. How it is done: The serotonergic 5-HT transporter was isolated from human recombinant HEK-293 cells according to the method described by Tatsumi et al. (1997), Pharmacological profile of antidepressants and related compounds at human monoamine transporters, Eur. J. Pharmacol., 340: 249-258.
Serotonergic transporter binding was determined by a radioligand method using tritium-labelled imipramine (2 nM) as substrate (Tatsumi et al., 1999). Ligand radioactivity was determined by liquid scintillation counting. Ligand incubations were carried out for thirty minutes at 22° C. The experiment was conducted in duplicate.
The specific ligand binding to the serotonergic transporter was defined as the difference between the total binding and the non specific binding determined in presence of an excess of unlabelled ligand. The results obtained are presented in Table 3 hereinbelow and are expressed as percent of control specific binding and as a percent inhibition of control specific binding obtained in presence of 10 μM of substance.

For experiment [2], the target named is T2, PDE2 (Homo sapiens, UniProt O00408).
T2 construct: PDE2 was isolated from human platelets, provided by Etablissement Français du Sang-Alsace; tissue Etablissement Français du Sang-Alsace; host or cells: human platelets
T2 sequence (O00408 whole entry): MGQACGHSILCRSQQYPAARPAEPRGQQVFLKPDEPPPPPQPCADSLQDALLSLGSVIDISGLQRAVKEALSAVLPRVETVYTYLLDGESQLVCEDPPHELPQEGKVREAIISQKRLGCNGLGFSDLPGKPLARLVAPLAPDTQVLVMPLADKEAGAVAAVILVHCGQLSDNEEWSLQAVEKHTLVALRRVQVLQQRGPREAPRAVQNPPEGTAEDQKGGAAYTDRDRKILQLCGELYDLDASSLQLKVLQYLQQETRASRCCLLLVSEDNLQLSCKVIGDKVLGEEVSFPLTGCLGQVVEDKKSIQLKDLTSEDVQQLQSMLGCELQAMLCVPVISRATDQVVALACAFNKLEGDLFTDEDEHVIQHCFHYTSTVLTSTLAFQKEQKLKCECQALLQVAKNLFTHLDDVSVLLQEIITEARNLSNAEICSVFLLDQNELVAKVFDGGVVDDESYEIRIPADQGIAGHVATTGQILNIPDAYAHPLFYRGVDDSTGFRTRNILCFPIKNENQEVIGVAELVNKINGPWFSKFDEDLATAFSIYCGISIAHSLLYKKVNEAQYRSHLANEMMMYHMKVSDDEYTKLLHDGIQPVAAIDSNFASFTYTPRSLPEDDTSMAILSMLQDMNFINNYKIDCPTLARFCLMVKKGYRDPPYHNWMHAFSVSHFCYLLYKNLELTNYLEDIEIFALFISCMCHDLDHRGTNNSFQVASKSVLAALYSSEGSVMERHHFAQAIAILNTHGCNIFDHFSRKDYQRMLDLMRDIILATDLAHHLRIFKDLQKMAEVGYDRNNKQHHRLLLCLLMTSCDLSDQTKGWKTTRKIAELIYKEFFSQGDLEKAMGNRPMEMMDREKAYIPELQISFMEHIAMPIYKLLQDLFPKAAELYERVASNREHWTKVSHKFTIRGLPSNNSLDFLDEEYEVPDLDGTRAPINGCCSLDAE
The experiment can be described thus: Inhibition of PDE2 (radioenzymatic phosphodiesterase assay). The format is biochemical. As for the experimental part: (§1) 2.1.1. Isolation of Phosphodiesterases from Smooth Muscle A 3 g segment of bovine aortic media cut into pieces with scissors was homogenized with an ultra-turrax then a potter glass/glass homogenizer in 7 volumes by weight of buffer A containing a protease inhibitor cocktail (20 mM Tris-HCl, 0.25 M saccharose, 2 mM magnesium acetate, 1 mM dithiothreitol, 5 mM EGTA, 2000 U/ml aprotinin, 10 mg/l leupeptin and 10 mg/l soya trypsic inhibitor). The homogenizate was centrifuged at 105,000 g for 1 hour. The supernatant was loaded on a DEAE-Sephacel column (15×1.6 cm) pre-equilibrated with buffer B (buffer A without the saccharose, EGTA and protease inhibitors). The column was washed until there was no detectable absorption at 280 nm, then eluted with a linear gradient of NaCl (0-0.5 M) in buffer B. 3-ml fractions were collected and enzyme activity was determined under the conditions described hereinbelow to localize the different enzymes PDE1, PDE3, PDE4 and PDE5 which were aliquoted and frozen at −80° C. (Lugnier et al., Biochem. Phamacol., 1986, 35: 1746-1751). PDE2 was isolated from human platelets, provided by Etablissement Français du Sang-Alsace, according to Kameni Tcheudji J F et al., (J. Mol. Biol. 2001; 310: 181-791), and stored until use at −80° C. in small aliquots.
(§2) Cyclic nucleotide phosphodiesterase activity was determined by a radioenzymatic method using tritium-labelled cyclic GMP or AMP (1 μM) as substrate (Lugnier et al., 1986). ^3H-labelled adenosine or guanosine monophosphate formed by hydrolysis of the radiolabelled cyclic nucleotide was then converted to ^3H-labelled adenosine or guanosine in a second reaction with […] in excess. The nucleoside formed was separated from the nucleotides by anion exchange chromatography. Nucleoside radioactivity was determined by liquid scintillation counting. Enzymatic incubations were carried out under conditions allowing no more than 15% hydrolysis of the substrate; each point was performed in duplicate.
The concentration of substance which inhibits enzymatic activity by 50% (IC50) at 1 μM cyclic AMP was calculated by nonlinear regression from the experimental values of hydrolysis rate (Prism, GraphPad).

The subject of experiment [3] is σ receptors. The experiment can be described thus: Isolated organ bioassay, field-stimulated vas deferens: test for antagonist activity. On the set-up: species or system guinea pig. The following applies: for Response to (+)SKF-10,047 (1.0 10^−4 M) in the presence of the compound: mean, n=2. As for the experimental part:
(§3) Segments of guinea pig vas deferens were suspended in 20-ml organ baths containing an oxygenated (95% O2 and 5% CO2) and pre-warmed (37° C.) physiological salt solution of the following composition (in mM): NaCl 118.0, KCl 4.7, MgSO4 1.2, CaCl2 2.5, KH2PO4 1.2, NaHCO3 25.0 and glucose 11.0 (pH 7.4). Yohimbine (1 μM), (−) sulpiride (1 μM), atropine (1 μM) and naloxone (1 μM) were also present throughout the experiments to block the α2-adrenergic, dopamine D2, muscarinic and opioid receptors, respectively. The tissues were connected to force transducers for isometric tension recordings. They were stretched to a resting tension of 0.5 g, allowed to equilibrate for at least 30 min during which time they were washed repeatedly and the tension readjusted. Thereafter, they were stimulated electrically using a constant current stimulator.
The tissues were exposed to a submaximal concentration of the reference agonist (+) SKF-10047 (100 μM) to obtain a control response. After stabilization of the (+) SKF-10047-induced response, increasing concentrations of substance or the reference antagonist rimcazole were added cumulatively. Each concentration was left in contact with the tissues until a stable response was obtained or for a maximum of 15 min. If it occurred, an inhibition of the (+) SKF-10047-induced increase in twitch contraction amplitude by substance indicated an antagonist activity at the σ receptors.
(§4) The parameter measured was the maximum change in the twitch contraction amplitude induced by each compound concentration. The results are expressed as a percent variation of the control twitch contraction amplitude (mean values). The effects of substance tested at 1.0 10^−6 M, 3.0 10^−6 M and 1.0 10^−5 M for agonist and antagonist activities at the σ receptors in the guinea pig vas deferens bioassay are summarized in Tables 6-7 where those of the reference compounds are also reported.

For experiment [4], the system named is PDE4. In words: Selectivity: inhibition of PDE4 (radioenzymatic assay). It counts as biochemical, bovine. Particulars: Table 2; for PDE4 percentage inhibition at 10 μM: 10 μM compound. How it is done:
as §1, §2
The activity of the compounds was evaluated on other phosphodiesterase isoforms, particularly basal state or calmodulin-activated PDE1 from vascular smooth muscle, PDE3, PDE4 and PDE5 from vascular smooth muscle. The results obtained are presented in Tables 1 and 2 hereinbelow and are expressed as the percentage inhibition of enzymatic activity produced by […] of the test compound.

For experiment [5], the system named is σ receptors. The experiment can be described thus: Isolated organ bioassay, field-stimulated vas deferens: test for agonist activity. Also noted: species or system guinea pig. How it is done: as §3
The tissues were exposed to a submaximal concentration of the reference agonist (+) SKF-10047 (100 μM) to verify responsiveness and to obtain a control response. Following washings and recovery of the twitch contraction amplitude, the tissues were exposed to increasing concentrations of substance or the same agonist. The different concentrations were added cumulatively and each was left in contact with the tissues until a stable response was obtained or for a maximum of 15 min. If an agonist-like response (enhancement of twitch contractions) was obtained, the reference antagonist rimcazole (10 μM) was tested against the highest concentration of substance to confirm the involvement of the σ receptors in this response.
as §4

Where [6] appears, read: Table 1, 10 μM compound, 1 μM cyclic AMP, read-out: PDE2 percentage inhibition at 10 μM.
The mark [7] stands for this setting: field-stimulated guinea pig vas deferens.
The mark [8] stands for this setting: read-out: PDE2 percentage inhibition at 10 μM, Table 1, 10 μM compound, 1 μM cyclic AMP.

Where two headings read alike, the source gives them in different places.

T1 sequence (P31645 whole entry): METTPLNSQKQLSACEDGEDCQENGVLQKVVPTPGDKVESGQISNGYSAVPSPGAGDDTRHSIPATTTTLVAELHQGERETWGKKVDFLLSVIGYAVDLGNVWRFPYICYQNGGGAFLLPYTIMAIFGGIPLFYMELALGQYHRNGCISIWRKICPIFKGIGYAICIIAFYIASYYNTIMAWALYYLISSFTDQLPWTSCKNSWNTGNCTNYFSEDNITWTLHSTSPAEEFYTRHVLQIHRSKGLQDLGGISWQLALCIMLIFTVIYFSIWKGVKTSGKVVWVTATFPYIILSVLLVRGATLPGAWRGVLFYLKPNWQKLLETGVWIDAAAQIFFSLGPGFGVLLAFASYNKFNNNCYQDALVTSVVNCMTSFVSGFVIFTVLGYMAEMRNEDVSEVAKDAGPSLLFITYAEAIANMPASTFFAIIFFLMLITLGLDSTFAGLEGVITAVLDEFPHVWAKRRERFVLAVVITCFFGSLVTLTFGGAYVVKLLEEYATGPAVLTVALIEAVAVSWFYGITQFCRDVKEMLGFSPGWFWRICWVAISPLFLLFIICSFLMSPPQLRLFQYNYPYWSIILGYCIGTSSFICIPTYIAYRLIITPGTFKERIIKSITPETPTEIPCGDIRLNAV

As to `COc1cc2c(c(OC)c1-c1ccccc1)C(c1ccccc1)=NCC(=O)N2C` [Compound 9, 6,8-Dimethoxy-1-methyl-5,7-diphenyl-1,3-dihydro-benzo[e][1,4]diazepin-2-one], the inhibition at 10 µM worked out at 1% in experiment [1] and 71% in experiment [2] (setting [6]).
For the compound `C[C@@H]1CN(CCCn2c3ccccc3c3ccccc32)C[C@H](C)N1` [rimcazole], the “Response to (+)SKF-10,047 (1.0 10^−4 M) in the presence of the compound” value in experiment [3] (compound 1.0 10^−6 M) is reported as “+111%”; in experiment [3] (compound 3.0 10^−6 M), “+52%”; in experiment [3] (third (highest) concentration, printed 1.0 10^−6 M), −12%. In addition, the “Effect on the (+) SKF 10,047-induced enhancement of twitch contraction amplitude (in words)” value in experiment [3] (setting [7]) is reported as “inhibited”.
`COc1cc2c(c(OC)c1-c1cccnc1)C(c1cccc(C#N)c1)=NCC(=O)N2C` [Compound 8, 3-(6,8-Dimethoxy-1-methyl-2-oxo-7-pyridin-3-yl-2,3-dihydro-1H-benzo[e][1,4]diazepin-5-yl)-benzonitrile]: the inhibition at 10 µM is 8% in experiment [1] and 56% in experiment [2] (setting [8]).
Take `COc1cc2c(c(OC)c1-c1ccccc1)C(c1cccc(C#N)c1)=NCC(=O)N2` [Compound 1, 3-(6,8-Dimethoxy-2-oxo-7-phenyl-2,3-dihydro-1H-benzo[e][1,4]diazepin-5-yl)-benzonitrile]: the inhibition at 10 µM was determined as 5% in experiment [1]; 9% in experiment [2] (setting [8]); 9% in experiment [2] (read-out: PDE2 percentage inhibition at 10 μM, Table 2, 10 μM compound). The “PDE4 percentage inhibition at 10 μM” value in experiment [4] came out at 43.3%. In experiment [2], this compound came in with an IC50 of 3 µM.
Take (+)SKF-10,047: the “Response to the compound, variation of twitch contraction amplitude” value in experiment [5] (1.0 10^−4 M, mean, n=2) is “+158%”; in experiment [5] (1.0 10^−5 M, mean, n=2) it was “+40%”; in experiment [5] (3.0 10^−5 M, mean, n=2), “+90%”. Further, in experiment [5] (setting [7]), the “Effect on twitch contraction amplitude (in words)” value is “concentration-dependent enhancement of the twitch contraction amplitude”. Moreover, the “Response to the highest concentration of the compound +Rimcazole (1.0 10^−5 M)” value in experiment [5] (highest compound concentration plus rimcazole 1.0 10^−5 M, mean, n=2) was −8%.
On to `COc1cc2c(c(OC)c1-c1ccc(Cl)cc1)C(c1cccc(C#N)c1)=NCC(=O)N2` [Compound 2, 3-[7-(4-Chloro-phenyl)-6,8-dimethoxy-2-oxo-2,3-dihydro-1H-benzo[e][1,4]diazepin-5-yl]-benzonitrile], for which the inhibition at 10 µM in experiment [1] stood at 12%; in experiment [2] (setting [6]), 93%. In addition, the “PDE4 percentage inhibition at 10 μM” value in experiment [4] worked out at 58%. In experiment [2], this compound had an IC50 of 0.73 µM.
On to `COc1cc2c(c(OC)c1-c1cccnc1)C(c1cccc(C(N)=O)c1)=NCC(=O)N2` [Compound 20, 3-(6,8-Dimethoxy-2-oxo-7-pyridin-3-yl-2,3-dihydro-1H-benzo[e][1,4]diazepin-5-yl)-benzamide], for which, in experiment [1], the inhibition at 10 µM came to 16%. Moreover, the “PDE2 percentage inhibition at 10 μM” value in experiment [2] (Table 1, 10 μM compound, 1 μM cyclic AMP) is reported as 68%.
For the compound `COc1cc2c(c(OC)c1-c1ccc(Cl)cc1)C(c1cccc(C(N)=O)c1)=NCC(=O)N2C` [Compound 18], the inhibition at 10 µM is 0% in experiment [1] and 98% in experiment [2] (setting [6]). Also, the “PDE4 percentage inhibition at 10 μM” value in experiment [4] was determined as 66%. Also, the IC50 was 6.5 µM in experiment [4] (value in square brackets) and 0.3 µM in experiment [2] (Table 1, value in square brackets, 1 μM cyclic AMP, read-out: PDE2 IC50).
For `COc1cc2c(c(OC)c1-c1ccc(Cl)cc1)C(c1cccc(C#N)c1)=NCC(=O)N2C` [Compound 7, 3-[7-(4-Chloro-phenyl)-6,8-dimethoxy-1-methyl-2-oxo-2,3-dihydro-1H-benzo[e][1,4]diazepin-5-yl]-benzonitrile], the inhibition at 10 µM was found to be 16% in experiment [1] and 61% in experiment [2] (setting [6]). The “PDE4 percentage inhibition at 10 μM” value in experiment [4] stood at 41%. The same compound registered an IC50 in experiment [2] of 4.6 µM.

As usually defined, the inhibition is the share of the control response that was lost under treatment. By IC50 is commonly meant the concentration that inhibits the measured activity by half.
